Measurements from US20130217664A1, “NOVEL COMPOUNDS USEFUL FOR THE TREATMENT OF DEGENERATIVE AND INFLAMMATORY DISEASES” (priority 2012, published 2013).
Where two headings read alike, the source gives them in different places.

Assays:
human JAK3 = target: T1, human JAK3 (Homo sapiens, UniProt P52333); experiment: JAK3 inhibition assay; format: biochemical; conditions: recombinant human JAK3 catalytic domain; polyGT substrate
T1 construct: catalytic domain (amino acids 781-1124; catalog number PV3855); purchased Invitrogen PV3855
Summary of the method: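 Radiometric kinase assay: 0.5 ng JAK3 with 2.5 μg polyGT in Tris pH 7.5/MgCl2 buffer, 1 μM ATP plus 0.25 μCi 33P-γ-ATP, 1% DMSO, 45 min at 30 °C, stopped with phosphoric acid.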

human JAK1 = target: T2, human JAK1 (Homo sapiens, UniProt P23458); experiment: JAK1 inhibition assay (polyGT substrate / Ulight-JAK1 peptide); format: biochemical; conditions: recombinant human JAK1 catalytic domain; polyGT or Ulight-JAK1 peptide assay
T2 construct: catalytic domain, amino acids 866-1154; catalog number PV4774; purchased Invitrogen PV4774
Summary of the method: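 Signal scaled between vehicle and 10 μM staurosporine. Radiometric polyGT reactions ran 45 min at 30 °C, counted after phosphoric-acid stop. Ulight peptide reactions ran 60 min at room temperature, fluorescence read after adding Eu-PT66 detection mix with EDTA.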

BA/F3 cell line = experiment: BA/F3 viability assay; conditions: Mus musculus, BaF3, 48 h, read-out: BA/F3 IC50
CTLL-2 cell line = experiment: CTLL2 viability assay; format: cell-based; conditions: Mus musculus, IL-2 dependent CTLL2 viability, 24 h, ATP-lite
Text: The protocol describes the methods to analyse the activity of compounds on their ability to sustain the IL2-dependent viability of CTLL2.
Final DMSO concentration was 0.1%.

[1] = tested on: pSTAT1(2)-luciferase reporter in HeLa cells triggered with human OSM; experiment: JAK-STAT signalling assay; format: cell-based; conditions: HeLa cells, pSTAT1(2)-luciferase reporter, human OSM 33 ng/mL, read-out: JAK-STAT IC50
Summary of the method: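 Compound added 60 min before 33 ng/mL (final) human OSM; after overnight stimulation at 37 °C, luciferase signal from a transiently transfected pSTAT1(2) reporter in HeLa cells was read, with LacZ as internal control. EC50 derived from percent-inhibition dose-response curves.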

human TYK2 = target: T3, human TYK2 (Homo sapiens, UniProt P29597); experiment: TYK2 inhibition assay; format: biochemical; conditions: recombinant human TYK2 catalytic domain, polyGT substrate
T3 construct: catalytic domain (amino acids 871-1187; catalog number 08-147); purchased Carna Biosciences 08-147
T3 sequence (P29597 871-1187): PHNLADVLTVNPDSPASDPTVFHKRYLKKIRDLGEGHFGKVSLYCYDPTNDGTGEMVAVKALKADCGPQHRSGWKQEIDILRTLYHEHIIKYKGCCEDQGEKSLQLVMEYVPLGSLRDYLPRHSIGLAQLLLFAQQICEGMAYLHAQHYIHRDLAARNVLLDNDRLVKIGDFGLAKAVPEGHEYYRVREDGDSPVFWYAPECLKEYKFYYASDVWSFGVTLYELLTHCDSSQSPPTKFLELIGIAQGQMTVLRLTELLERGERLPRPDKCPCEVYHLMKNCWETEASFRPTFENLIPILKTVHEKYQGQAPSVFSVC
Summary of the method: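 Radiometric kinase reaction run 90 min at 30 °C, stopped with phosphoric acid, washed and scintillation-counted.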

T1 sequence (P52333 781-1124): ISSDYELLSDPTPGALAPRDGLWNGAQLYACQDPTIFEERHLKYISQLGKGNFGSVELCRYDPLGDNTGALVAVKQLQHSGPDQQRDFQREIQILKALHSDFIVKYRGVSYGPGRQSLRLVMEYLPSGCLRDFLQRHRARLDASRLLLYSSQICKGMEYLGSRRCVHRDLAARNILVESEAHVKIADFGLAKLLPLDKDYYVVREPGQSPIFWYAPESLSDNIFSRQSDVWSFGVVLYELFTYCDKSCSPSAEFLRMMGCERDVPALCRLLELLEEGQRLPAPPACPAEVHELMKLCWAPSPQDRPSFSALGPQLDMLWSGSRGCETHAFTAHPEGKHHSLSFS
T2 sequence (P23458 866-1154): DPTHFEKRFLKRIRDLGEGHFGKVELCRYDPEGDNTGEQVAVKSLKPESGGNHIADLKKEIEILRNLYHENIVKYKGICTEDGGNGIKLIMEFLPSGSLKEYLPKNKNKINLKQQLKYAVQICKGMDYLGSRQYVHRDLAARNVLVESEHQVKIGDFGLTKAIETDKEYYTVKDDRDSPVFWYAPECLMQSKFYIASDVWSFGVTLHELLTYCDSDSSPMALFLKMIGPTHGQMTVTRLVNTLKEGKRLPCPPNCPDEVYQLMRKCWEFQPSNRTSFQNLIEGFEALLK

| Compound | IC50 (human JAK3) [nM] | IC50 (human JAK1) [nM] | IC50 (BA/F3 cell line) [nM] | IC50 ([1]; Homo sapiens, HeLa) [nM] | IC50 (human TYK2) [nM] | IC50 [1] [nM] | IC50 (CTLL-2 cell line) [nM] |
| --- | --- | --- | --- | --- | --- | --- | --- |
| CCc1cc(C2=CCN(C(=O)C3(O)CC3)CC2)ccc1N(C)c1cc2c(cn1)ncn2C [Compound 229, (4-(3-ethyl-4-(methyl(1-methyl-1H-imidazo[4,5-c]pyridin-6-yl)amino)phenyl)-5,6-dihydropyridin-1(2H)-yl)(1-hydroxycyclopropyl)meth-anone] | 101 to 500 | 0.01 to 100 | 1000 to 5000 | 1 to 500 | 0.01 to 100 | – | > 1000 |
| CCc1cc(CNS(=O)(=O)N2CCCCC2)ccc1N(C)c1cc2c(cn1)ncn2C [Compound 243, N-(3-ethyl-4-(methyl(1-methyl-1H-imidazo[4,5-c]pyridin-6-yl)amino)benzyl)piperidine-1-sulfonamide] | 101 to 500 | 0.01 to 100 | 1000 to 5000 | 1 to 500 | 101 to 500 | – | > 1000 |
| CCc1cc(CNS(=O)(=O)C(C)C)ccc1N(C)c1cc2c(cn1)ncn2C [Compound 245, N-(3-ethyl-4-(methyl(1-methyl-1H-imidazo[4,5-c]pyridin-6-yl)amino)benzyl)propane-2-sulfonamide] | 101 to 500 | 0.01 to 100 | 1000 to 5000 | 501 to 1000 | 101 to 500 | – | > 1000 |
| CCc1cc(CNC(=O)COC)ccc1N(C)c1cc2c(cn1)ncn2C [Compound 254, N-(3-Ethyl-4-(methyl(1-methyl-1H-imidazo[4,5-c]pyridin-6-yl)amino)benzyl)-2-methoxyacetamide] | > 1000 | 0.01 to 100 | > 5000 | > 1000 | > 1000 | – | > 1000 |
| CCc1cc(CNC(=O)C(F)F)ccc1N(C)c1cc2c(cn1)ncn2C [Compound 256, N-(3-ethyl-4-(methyl(1-methyl-1H-imidazo[4,5-c]pyridin-6-yl)amino)benzyl)-2,2-difluoroacetamide] | 0.01 to 100 | 0.01 to 100 | > 5000 | 1 to 500 | 101 to 500 | – | > 1000 |
| CCc1cc(CN2CCCS2(=O)=O)ccc1N(C)c1cc2c(cn1)ncn2C [Compound 262, [4-(1,1-Dioxoisothiazolidin-2-ylmethyl)-2-ethyl-phenyl]-methyl-(1-methyl-1H-imidazo[4,5-c]pyridin-6-yl)-amine] | 101 to 500 | 0.01 to 100 | 1000 to 5000 | – | 101 to 500 | 1 to 500 | > 1000 |
| CN(c1cc2c(cn1)ncn2C)c1ccc(-c2cnn(C)c2)cc1OC(F)F [Compound 274, N-(2-(Difluoromethoxy)-4-(1-methyl-1H-pyrazol-4-yl)phenyl)-N,1-dimethyl-1H-imidazo[4,5-c]pyridin-6-amine] | 101 to 500 | 0.01 to 100 | 1000 to 5000 | – | 0.01 to 100 | 1 to 500 | > 1000 |
| CCc1cc(-c2cnn(C)c2)ncc1N(C)c1cc2c(cn1)ncn2C [Compound 280, N-(4-Ethyl-6-(1-methyl-1H-pyrazol-4-yl)pyridin-3-yl)-N,1-dimethyl-1H-imidazo[4,5-c]pyridin-6-amine] | > 1000 | 0.01 to 100 | > 5000 | – | 101 to 500 | > 1000 | > 1000 |

Second part, led by results:

| IC50 (human JAK3) [nM] | IC50 (human JAK1) [nM] | IC50 (BA/F3 cell line) [nM] | IC50 ([1]; Homo sapiens, HeLa) [nM] | IC50 (human TYK2) [nM] | IC50 [1] [nM] | Compound | IC50 (CTLL-2 cell line) [nM] |
| --- | --- | --- | --- | --- | --- | --- | --- |
| 0.01 to 100 | 0.01 to 100 | 1000 to 5000 | 1 to 500 | 0.01 to 100 | – | CCc1cc(CNS(=O)(=O)CC(F)(F)F)ccc1N(C)c1cc2c(cn1)ncn2C [Compound 244, N-(3-ethyl-4-(methyl(1-methyl-1H-imidazo[4,5-c]pyridin-6-yl)amino)benzyl)-2,2,2-trifluoroethane sulfonamide] | > 1000 |
| 0.01 to 100 | 0.01 to 100 | 1000 to 5000 | 1 to 500 | 0.01 to 100 | – | CCc1cc(C2=CCN(C(=O)[C@@H](C)O)CC2)ccc1N(C)c1cc2c(cn1)ncn2C [Compound 248, (R)-1-(4-(3-ethyl-4-(methyl(1-methyl-1H-imidazo[4,5-c]pyridin-6-yl)amino)phenyl)-5,6-dihydropyridin-1(2H)-yl)-2-hydroxypropan-1-one] | > 1000 |
| 0.01 to 100 | 0.01 to 100 | > 5000 | 1 to 500 | 0.01 to 100 | – | CCc1cc(CNS(=O)(=O)CC)ccc1N(C)c1cc2c(cn1)ncn2C [Compound 253, N-(3-ethyl-4-(methyl(1-methyl-1H-imidazo[4,5-c]pyridin-6-yl)amino)benzyl)ethane-sulfonamide] | > 1000 |
